Reference: EP1493438A1, “Vanilloid receptor (VR) inhibitors for treatment of Human Immunodeficiency Virus (HIV)-mediated pain states” (Bayer HealthCare AG, priority 2003, dated 2005)

Experiments:
HIV patients = conditions: cited from earlier work; for efficacy in clinical trails investigating HIV-mediated neuropathic pain: Shlay et al. (1998), Kieburtz et al. (1998)
rat sciatic nerve [1] = test: CGRP-release from isolated rat sciatic nerve upon stimulation (Method C); conditions: Capsaicin 100 nM, t0-t5 stimulation period
rat DRG neurons = test: Inhibition of gp120-mediated CGRP-release from rat DRG neurons (Method B); conditions: for IC50: Rattus norvegicus, DRG neuron; for inhibition of gp120-mediated CGRP release from DRG neurons: result in words
rat sciatic nerve [2] = test: gp120-mediated CGRP release from rat sciatic nerve in the presence or absence of VR1 inhibitors (Method C); conditions: for block of CGRP release from gp120-stimulated sciatic nerve: result in words; for CGRP release: gp120 250 pg/ml in the presence of CAZ (1 µM) or Cpd. 1 (20 nM)
Description: After 5 min, 10 min and 20 min supernatant was substituted with fresh solution or RAB buffer pH 7.4 and the samples placed on ice until analysis. All samples were analyzed by EIA for CGRP release and normalized by the dry weight of the particular sciatic nerve.
Male Wistar rats (180-220 g) are anesthetized using Isofluran, Dinitricoxide and Oxygen (5:68:27 (v/v/v)) in a vaporisator. The hind legs are shaved and opened along the femur. Using tweezers and scissors the Musculus gluteus superficialis and Musculus bicepsfemoris are separated gaining access to the Nervus ischiadicus. The Nervus ischiadicus is cut proximally 1 cm before entry into the spine and laterally at the branching of Nervus fibularis and Nervus tibialis. […] The fixed nerve is transferred to a 1.5 ml eppendorf tube containing 300 µl RAB, pH 7.4 at RT.
To reset all samples, sciatic nerve preparations are transferred 5 min prior to stimulation to fresh 300 µl of RAB pH 7.4 (prestimulation ― point zero). Stimulation is performed for 5 or 10 min with Capsaicin solution (100 nM Capsaicin in RAB pH 7.4), RAB pH 4.5 or preheated RAB pH 7.4 (50°C) in the presence or absence of inhibitors. To evaluate post-stimulation CGRP-release sciatic nerve preparations are transferred in 5-min-intervals to fresh tubes containing RAB pH 7.4. Supernatants of each sample are transferred to EIA plates (CGRP Release Kit, SpiBio, Paris, France) and analyzed in triplicate (3 x 100µl) according to the manufacterer's protocol. Upon completion of the experiment the sciatic nerve preparations are carefully removed from the spatula, dried on 3MM paper and weighed. CGRP concentrations obtained from the CGRP-release EIA are finally normalized to the dry weight of the sciatic nerve preparations.

In the case of `CN(C)CCC=C1c2ccccc2CCc2ccccc21` [Amitriptyline], the “efficacy in clinical trails investigating HIV-mediated neuropathic pain” value (HIV patients) is given as “completely ineffective”.

In the case of `COc1cc(CNC(=O)CCCC/C=C/C(C)C)ccc1O` [CAPS, Capsaicin], the CGRP-release (rat sciatic nerve [1]; time 0 min) is reported as 0.05923 ng/mg ng CGRP/mg nerve dry weight, the CGRP-release (rat sciatic nerve [1]; time 5 min) is reported as 5.9+/-1.3 ng/mg ng CGRP/mg nerve dry weight and the CGRP-release (rat sciatic nerve [1]; time 10 min) is reported as 5.3+/-0.2 ng/mg ng CGRP/mg nerve dry weight. For the same compound, the CGRP-release (rat sciatic nerve [1]; time 20 min) was 4.0+/-0.1 ng/mg ng CGRP/mg nerve dry weight, the CGRP-release (rat sciatic nerve [1]; time -5 min) was 0 ng CGRP/mg nerve dry weight and the “pain in HIV patients with chronic DSP” value (HIV patients; randomized, double-masked clinical trail, Paice et al. (2000)) was “strongly increased pain”.

For `Oc1cc2c(cc1O)CN(C(=S)NCCc1ccc(Cl)cc1)CCC2` [CAZ, Capsazepin], the IC50 (rat DRG neurons) was 0.109 µM, the “inhibition of gp120-mediated CGRP release from DRG neurons” value (“inhibition” for short) (rat DRG neurons) was “completely inhibited” and the “block of CGRP release from gp120-stimulated sciatic nerve” value (rat sciatic nerve [2]) was “capable to block CGRP release”.

With `N#CC(=C(/N)Sc1ccccc1N)/C(C#N)=C(\N)Sc1ccccc1N` [Compound U0126] the IC50 (rat DRG neurons) was 0.0019 µM and the “inhibition” value (rat DRG neurons) was “completely inhibited”.

With `O=C(NCc1ccc(OC(F)(F)F)cc1)Nc1cccc2c1CC(O)CC2` (centres unmarked) [Cpd. Example 1, N-(7-hydroxy-5,6,7,8-tetrahydro-naphthalen-1-yl)-N'-(4-trifluoromethoxy-benzyl)-urea] the IC50 (rat DRG neurons) was 0.00044 µM, the “inhibition” value (rat DRG neurons) was “completely inhibited” and the CGRP release (rat sciatic nerve [2]; time 0 min) was 0. For the same compound, the CGRP release (rat sciatic nerve [2]; time 5 min) was 0, the CGRP release (rat sciatic nerve [2]; time 10 min) was 0 and the CGRP release (rat sciatic nerve [2]; time 20 min) was 0. For the same compound, the CGRP release (rat sciatic nerve [2]; time -5 min) was 0 and the “block of CGRP release from gp120-stimulated sciatic nerve” value (rat sciatic nerve [2]) was “capable to block CGRP release”.

In the case of `CC(C)Cc1ccc(C(C)C(=O)O)cc1` (centres unmarked) [Ibuprofen], the “inhibition” value (rat DRG neurons) is reported as “can not inhibit”.

For `Cc1cccc(C)c1OCC(C)N` (centres unmarked) [Mexiletine], the “efficacy in clinical trails investigating HIV-mediated neuropathic pain” value (HIV patients) is given as “completely ineffective”.

With `CC(Cc1ccc(O)c(O)c1)C(C)Cc1ccc(O)c(O)c1` (centres unmarked) [NGDA, Nordihydroguaiaretic Acid] the IC50 (rat DRG neurons) was 43 µM and the “inhibition” value (rat DRG neurons) was “completely inhibited”.

With `COc1cccc(-c2cc(=O)c3ccccc3o2)c1N` [PD98059] the IC50 (rat DRG neurons) was 0.00936 µM and the “inhibition” value (rat DRG neurons) was “completely inhibited”.

For `CCN(CC)CCCC(C)Nc1c2ccc(Cl)cc2nc2ccc(OC)cc12` (centres unmarked) [QN, Quinacrine], the IC50 (rat DRG neurons) was 1.53 µM and the “inhibition” value (rat DRG neurons) was “completely inhibited”.

In the case of `C[S+]([O-])c1ccc(-c2nc(-c3ccncc3)c(-c3ccc(F)cc3)[nH]2)cc1` (centres unmarked) [SB203580], the “inhibition” value (rat DRG neurons) is reported as “completely inhibited”.
